Reference: patent US20230085307A1, “PYRIDAZINONE COMPOUND AND HERBICIDE” (NISSAN CHEMICAL CORPORATION, priority 2019, published 2023)

Columns and labels:
late watergrass [1] = assay: Test Example 1: herbicidal activity, application before weed generation under submerged conditions (Table 16, symbol A); assay type: in vivo, late watergrass (Echinochloa oryzicola); settings: amount of applied herbicide 320 g/ha
How it was run: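 Emulsion formulation, water-diluted to set dose, was put onto the flooded surface (4 cm depth, alluvial soil) the same day weeds were sown and 2.5-leaf rice transplanted. After 3 weeks at 25-30 °C under glass, each species was rated 0 (≤5% kill) to 5 (≥90% kill).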

late watergrass [2] = assay: Test Example 2: herbicidal activity, application during weed generation under submerged conditions (Table 17, symbol A); assay type: in vivo, late watergrass (Echinochloa oryzicola); settings: AAH 320 g/ha; application during weed generation, submerged conditions
How it was run: (§1)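 In this pot test, flooded alluvial soil (water depth 4 cm) holds all three species sown as a mixture. Once seedlings have one to two leaves, the compound's emulsion, thinned with water to the intended dose, is poured on the water; grading follows after three weeks on the earlier criteria.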

Japanese bulrush = assay: Test Example 2: herbicidal activity, application during weed generation under submerged conditions (Table 17, symbol B); assay type: in vivo, Japanese bulrush (Schoenoplectus juncoides); settings: AAH 320 g/ha; application during weed generation, submerged conditions
How it was run: as §1

oval-leafed pondweed = assay: Test Example 2: herbicidal activity, application during weed generation under submerged conditions (Table 17, symbol C); assay type: in vivo, oval-leafed pondweed (Monochoria vaginalis); settings: AAH 320 g/ha; application during weed generation, submerged conditions
How it was run: as §1

wild oat = assay: Test Example 4: herbicidal effect by soil treatment (Table 19, symbol I); assay type: in vivo, wild oat (Avena fatua); settings: amount of applied herbicide 320 g/ha
How it was run: (§2)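 Herbicidal effect was rated 3 weeks after treatment, using the scoring criteria of an earlier test. The compound, formulated as an emulsion and diluted in water to a set herbicide amount, had been sprayed uniformly on soil over freshly sown seeds. Growth took place in a greenhouse at 25° C. to 30° C.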

blackgrass [3] = assay: Test Example 4: herbicidal effect by soil treatment (Table 19, symbol J); assay type: in vivo, blackgrass (Alopecurus myosuroides); settings: amount of applied herbicide 320 g/ha
How it was run: as §2

Italian ryegrass [4] = assay: Test Example 4: herbicidal effect by soil treatment (Table 19, symbol K); assay type: in vivo, Italian ryegrass (Lolium multiflorum); settings: amount of applied herbicide 320 g/ha
How it was run: as §2

lambsquarters = assay: Test Example 4: herbicidal effect by soil treatment (Table 19, symbol O); assay type: in vivo, lambsquarters (Chenopodium album); settings: amount of applied herbicide 320 g/ha
How it was run: as §2

chickweed [5] = assay: Test Example 4: herbicidal effect by soil treatment (Table 19, symbol P); assay type: in vivo, common chickweed (Stellaria media); settings: amount of applied herbicide 320 g/ha
How it was run: as §2

persian speedwell = assay: Test Example 4: herbicidal effect by soil treatment (Table 19, symbol R); assay type: in vivo, Persian speedwell (Veronica persica); settings: amount of applied herbicide 320 g/ha
How it was run: as §2

southern crabgrass = assay: Test Example 5: herbicidal effect by foliage application, plastic box (Table 20, symbol F); assay type: in vivo, southern crabgrass (Digitaria ciliaris); settings: foliage application, 320 g/ha, three weeks after application
How it was run: (§3)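 Foliar spray test: emulsion formulation diluted in water to a set application rate, sprayed onto 14-day-old plants raised in diluvial soil at 25° C to 30° C under glass. Both herbicidal effect and crop effect rated visually three weeks later.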

blackgrass [6] = assay: Test Example 5: herbicidal effect by foliage application, plastic box (Table 20, symbol J); assay type: in vivo, blackgrass (Alopecurus myosuroides); settings: foliage application, 320 g/ha, three weeks after application
How it was run: as §3

Italian ryegrass [7] = assay: Test Example 5: herbicidal effect by foliage application, plastic box (Table 20, symbol K); assay type: in vivo, Italian ryegrass (Lolium multiflorum); settings: foliage application, 320 g/ha, three weeks after application
How it was run: as §3

velvetleaf = assay: Test Example 5: herbicidal effect by foliage application, plastic box (Table 20, symbol M); assay type: in vivo, velvetleaf (Abutilon theophrasti); settings: foliage application, 320 g/ha, three weeks after application
How it was run: as §3

redroot pigweed = assay: Test Example 5: herbicidal effect by foliage application, plastic box (Table 20, symbol N); assay type: in vivo, redroot pigweed (Amaranthus retroflexus); settings: foliage application, 320 g/ha, three weeks after application
How it was run: as §3

chickweed [8] = assay: Test Example 5: herbicidal effect by foliage application, plastic box (Table 20, symbol P); assay type: in vivo, common chickweed (Stellaria media); settings: foliage application, 320 g/ha, three weeks after application
How it was run: as §3

| Structure (SMILES) | Herbicidal effect, A: late watergrass (late watergrass [1]) | herbicidal effect rating, A: late watergrass (late watergrass [2]) | herbicidal effect rating, B: Japanese bulrush (Japanese bulrush) | herbicidal effect rating, C: oval-leafed pondweed (oval-leafed pondweed) | I: wild oat, herbicidal effect grade (wild oat) | J: blackgrass, herbicidal effect grade (blackgrass [3]) | K: Italian ryegrass, herbicidal effect grade (Italian ryegrass [4]) | O: lambsquarters, herbicidal effect grade (lambsquarters) | P: chickweed, herbicidal effect grade (chickweed [5]) | R: persian speedwell, herbicidal effect grade (persian speedwell) | F: southern crabgrass, herbicidal effect grade (southern crabgrass) | J: blackgrass, herbicidal effect grade (blackgrass [6]) | K: Italian ryegrass, herbicidal effect grade (Italian ryegrass [7]) | M: velvetleaf, herbicidal effect grade (velvetleaf) | N: redroot pigweed, herbicidal effect grade (redroot pigweed) | P: chickweed, herbicidal effect grade (chickweed [8]) | further results |
| --- | --- | --- | --- | --- | --- | --- | --- | --- | --- | --- | --- | --- | --- | --- | --- | --- | --- |
| COc1ccccc1-c1sc2cc(OCc3ccccc3)ccc2c1-c1c(O)c(C)nn(C)c1=O [3-118] | 3 (Herbicidal rate of 40% or more and less than 70%) | 1 (Herbicidal rate of 5% or more and less than 20%) | 2 (Herbicidal rate of 20% or more and less than 40%) | 0 (Herbicidal rate of 5% or less (almost no effect)) | 0 (Herbicidal rate of 5% or less (almost no effect)) | 0 (Herbicidal rate of 5% or less (almost no effect)) | 3 (Herbicidal rate of 40% or more and less than 70%) | 1 (Herbicidal rate of 5% or more and less than 20%) | 0 (Herbicidal rate of 5% or less (almost no effect)) | 5 (Herbicidal rate of 90% or more (almost completely withered)) | 4 (Herbicidal rate of 70% or more and less than 90%) | 4 (Herbicidal rate of 70% or more and less than 90%) | 5 (Herbicidal rate of 90% or more (almost completely withered)) | 2 (Herbicidal rate of 20% or more and less than 40%) | 5 (Herbicidal rate of 90% or more (almost completely withered)) | 3 (Herbicidal rate of 40% or more and less than 70%) | – |
| COCCOc1ccc2c(-c3c(O)c(C)nn(C)c3=O)c(-c3ccccc3OC)sc2c1 [3-121] | 5 (Herbicidal rate of 90% or more (almost completely withered)) | 3 (Herbicidal rate of 40% or more and less than 70%) | 3 (Herbicidal rate of 40% or more and less than 70%) | 3 (Herbicidal rate of 40% or more and less than 70%) | 3 (Herbicidal rate of 40% or more and less than 70%) | 5 (Herbicidal rate of 90% or more (almost completely withered)) | 5 (Herbicidal rate of 90% or more (almost completely withered)) | 5 (Herbicidal rate of 90% or more (almost completely withered)) | 5 (Herbicidal rate of 90% or more (almost completely withered)) | 5 (Herbicidal rate of 90% or more (almost completely withered)) | 5 (Herbicidal rate of 90% or more (almost completely withered)) | 5 (Herbicidal rate of 90% or more (almost completely withered)) | 5 (Herbicidal rate of 90% or more (almost completely withered)) | 5 (Herbicidal rate of 90% or more (almost completely withered)) | 5 (Herbicidal rate of 90% or more (almost completely withered)) | 5 (Herbicidal rate of 90% or more (almost completely withered)) | – |
| COc1ccccc1-c1sc2cc(OCC3CC3)ccc2c1-c1c(O)c(C)nn(C)c1=O [3-129] | 5 (Herbicidal rate of 90% or more (almost completely withered)) | 3 (Herbicidal rate of 40% or more and less than 70%) | 3 (Herbicidal rate of 40% or more and less than 70%) | 3 (Herbicidal rate of 40% or more and less than 70%) | 1 (Herbicidal rate of 5% or more and less than 20%) | 4 (Herbicidal rate of 70% or more and less than 90%) | 5 (Herbicidal rate of 90% or more (almost completely withered)) | 5 (Herbicidal rate of 90% or more (almost completely withered)) | 3 (Herbicidal rate of 40% or more and less than 70%) | 4 (Herbicidal rate of 70% or more and less than 90%) | 5 (Herbicidal rate of 90% or more (almost completely withered)) | 5 (Herbicidal rate of 90% or more (almost completely withered)) | 5 (Herbicidal rate of 90% or more (almost completely withered)) | 4 (Herbicidal rate of 70% or more and less than 90%) | 5 (Herbicidal rate of 90% or more (almost completely withered)) | 5 (Herbicidal rate of 90% or more (almost completely withered)) | – |
| CCCC(=O)Oc1c(C)nn(C)c(=O)c1-c1c(-c2ccc(C(F)(F)F)cc2)sc2cc(F)ccc12 [3-140] | 5 (Herbicidal rate of 90% or more (almost completely withered)) | 3 (Herbicidal rate of 40% or more and less than 70%) | 3 (Herbicidal rate of 40% or more and less than 70%) | 3 (Herbicidal rate of 40% or more and less than 70%) | – | – | – | – | – | – | 1 (Herbicidal rate of 5% or more and less than 20%) | 0 (Herbicidal rate of 5% or less (almost no effect)) | 0 (Herbicidal rate of 5% or less (almost no effect)) | 5 (Herbicidal rate of 90% or more (almost completely withered)) | 5 (Herbicidal rate of 90% or more (almost completely withered)) | 5 (Herbicidal rate of 90% or more (almost completely withered)) | Herbicidal effect by soil treatment, I: wild oat (wild oat): 0 (Herbicidal rate of 5% or less (almost no effect)); Herbicidal effect by soil treatment, J: blackgrass (blackgrass [3]): 0 (Herbicidal rate of 5% or less (almost no effect)); Herbicidal effect by soil treatment, K: Italian ryegrass (Italian ryegrass [4]): 0 (Herbicidal rate of 5% or less (almost no effect)); Herbicidal effect by soil treatment, O: lambsquarters (lambsquarters): 3 (Herbicidal rate of 40% or more and less than 70%); Herbicidal effect by soil treatment, P: chickweed (chickweed [5]): 0 (Herbicidal rate of 5% or less (almost no effect)); Herbicidal effect by soil treatment, R: persian speedwell (persian speedwell): 0 (Herbicidal rate of 5% or less (almost no effect)) |
